The source of these data is patent publication US20250122191A1, “COMPOUNDS AS BCL-2 INHIBITORS” (Fochon Biosciences, Ltd, priority 2021, published 2025).

pIC50: −log10 of the molar value.

One assay relates to Toledo cells. Nature of the assay: Cell proliferation assay (MTS), Toledo cells. The format is cell-based. Particulars: Homo sapiens, 72 h. The protocol: MTS testing kit was purchased from Promega (Madison, WI, USA). The RPMI-1640, Fetal bovine serum and Penicillin-Streptomycin were purchased from BI (Biological Industries, Beit Haemek, Israel). Dimethyl sulfoxide (DMSO) was purchased from Sigma (St. Louis., MO, USA). Toledo (ATCC catalog #: CRL-2631) cells were cultured in RPMI-1640 supplemented with Penicillin-Streptomycin and 10% FBS.
To investigate whether a compound is able to inhibit the activity of BCL-2 in cells, a mechanism-based assay using Toledo lines was developed. In this assay, the inhibition of BCL-2 was reflected by the inhibition of cell proliferation of Toledo cells. Cells were plated into 96-well plates at the optimized cell density of 30000 cells/well. Plates were incubated at 37° C., with 5% CO2 for 4 h. Compounds were serially diluted and added to the plates with the final concentrations of 10000, 3333.3, 1111.1, 370.4, 123.5, 41.2, 13.7, 4.6 and 1.5 nM. Plates were incubated at 37° C., with 5% CO2 for 72 h. 20 μl MTS was added into each well and the plates were incubated at 37° C., with 5% CO2 for exactly 2 h. The absorbance was measured by a microplate reader at 490 nm. IC50 was calculated using GraphPad Prism 5.0 software.

The subject of the next assay is RS4;11-BCL-2 G101V cells. The experiment in a line: Cell proliferation assay (MTS), RS4;11-BCL-2 G101V engineered cells. Format: cell-based. Particulars: Homo sapiens, 120 h, read-out: RS4, 11 BCL2-G101V IC50. In short, it runs like this: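 Inhibition of mutant BCL-2 is inferred from reduced proliferation of RS4;11 cells stably overexpressing the mutant. Compounds are tested at 1.5–10000 nM for 120 h (G101V, F104L) or 72 h (D103E, D103Y), with MTS absorbance at 490 nm used to derive IC50.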

Take `CCOc1nc2[nH]cc(F)c2cc1Oc1cc(N2CCC3(CC2)CC(N2CCN(Cc4ccc(F)cc4)C[C@H]2c2ccccc2C(C)C)C3)ccc1C(=O)NS(=O)(=O)c1cnc(NC[C@H]2CC[C@](C)(O)CC2)c([N+](=O)[O-])c1` [Example 234, 2-((6-ethoxy-3-fluoro-1H-pyrrolo[2,3-b]pyridin-5-yl)oxy)-4-(2-((R)-4-(4-fluorobenzyl)-2-(2-isopropylphenyl)piperazin-1-yl)-7-azaspiro[3.5]nonan-7-yl)-N-((6-((((1r,4r)-4-hydroxy-4-methylcyclohexyl)methyl)amino)-5-nitropyridin-3-yl)sulfonyl)benzamide]: the pIC50 in the assay with Toledo cells and in the assay with RS4;11-BCL-2 G101V cells was 9.00 in each case.
For the compound `COc1ccc(CN2CCN(C3CC4(CCN(c5ccc(C(=O)NS(=O)(=O)c6cnc(NC[C@H]7CC[C@](C)(O)CC7)c([N+](=O)[O-])c6)c(Oc6cnc7[nH]cc(F)c7c6)c5)CC4)C3)[C@H](c3ccccc3C(C)C)C2)cc1F` [Example 201, 2-((3-fluoro-1H-pyrrolo[2,3-b]pyridin-5-yl)oxy)-4-(2-((R)-4-(3-fluoro-4-methoxybenzyl)-2-(2-isopropylphenyl)piperazin-1-yl)-7-azaspiro [3.5]nonan-7-yl)-N-((6-((((1r,4r)-4-hydroxy-4-methylcyclohexyl)methyl)amino)-5-nitropyridin-3-yl)sulfonyl)benzamide], the pIC50 in the assay on Toledo cells and in the assay with RS4;11-BCL-2 G101V cells was 9.00 throughout.
Take `COc1nc2[nH]cc(F)c2cc1Oc1cc(N2CCC3(CC2)CC(N2CCN(Cc4cc5c(cn4)OCCO5)C[C@H]2c2ccccc2C(C)C)C3)ccc1C(=O)NS(=O)(=O)c1cnc(NC[C@H]2CC[C@](C)(O)CC2)c([N+](=O)[O-])c1` [Example 338, 4-(2-((R)-4-((2,3-dihydro-[1,4]dioxino[2,3-c]pyridin-7-yl)methyl)-2-(2-isopropylphenyl)piperazin-1-yl)-7-azaspiro[3.5]nonan-7-yl)-2-((3-fluoro-6-methoxy-1H-pyrrolo[2,3-b]pyridin-5-yl)oxy)-N-((6-((((1r,4r)-4-hydroxy-4-methylcyclohexyl)methyl)amino)-5-nitropyridin-3-yl)sulfonyl)benzamide]: the pIC50 in the assay on Toledo cells and in the assay with RS4;11-BCL-2 G101V cells was 9.00 each time.
`CCOc1nc2[nH]cc(F)c2cc1Oc1cc(N2CCC3(CC2)CC(N2CCN(Cc4ccnc(OC)c4)C[C@H]2c2ccccc2C(C)C)C3)ccc1C(=O)NS(=O)(=O)c1cnc(NC[C@H]2CC[C@](C)(O)CC2)c([N+](=O)[O-])c1` [Example 241, 2-((6-ethoxy-3-fluoro-1H-pyrrolo[2,3-b]pyridin-5-yl)oxy)-N-((6-((((1r,4r)-4-hydroxy-4-methylcyclohexyl)methyl)amino)-5-nitropyridin-3-yl)sulfonyl)-4-(2-((R)-2-(2-isopropylphenyl)-4-((2-methoxypyridin-4-yl)methyl)piperazin-1-yl)-7-azaspiro[3.5]nonan-7-yl)benzamide]: the pIC50 in the assay with Toledo cells and in the assay with RS4;11-BCL-2 G101V cells was 9.00 throughout.
With `CCOc1nc2[nH]cc(F)c2cc1Oc1cc(N2CCC3(CC2)CC(N2CCN(Cc4ccc(Cl)cc4)C[C@H]2c2ccccc2C(C)C)C3)ccc1C(=O)NS(=O)(=O)c1cnc(NC[C@H]2CC[C@](C)(O)CC2)c([N+](=O)[O-])c1` [Example 231, 4-(2-((R)-4-(4-chlorobenzyl)-2-(2-isopropylphenyl)piperazin-1-yl)-7-azaspiro[3.5]nonan-7-yl)-2-((6-ethoxy-3-fluoro-1H-pyrrolo[2,3-b]pyridin-5-yl)oxy)-N-((6-((((1r,4r)-4-hydroxy-4-methylcyclohexyl)methyl)amino)-5-nitropyridin-3-yl)sulfonyl)benzamide], the negative logarithm of the IC50 (pIC50) in the assay with Toledo cells and with RS4;11-BCL-2 G101V cells was 9.00 each time.
As for `CCOc1nc2[nH]cc(F)c2cc1Oc1cc(N2CCC3(CC2)CC(N2CCN(C4COC4)C[C@H]2c2ccccc2C(C)C)C3)ccc1C(=O)NS(=O)(=O)c1cnc(NC[C@H]2CC[C@](C)(O)CC2)c([N+](=O)[O-])c1` [Example 132, 2-((6-ethoxy-3-fluoro-1H-pyrrolo[2,3-b]pyridin-5-yl)oxy)-N-((6-((((1r,4r)-4-hydroxy-4-methylcyclohexyl)methyl)amino)-5-nitropyridin-3-yl)sulfonyl)-4-(2-((R)-2-(2-isopropylphenyl)-4-(oxetan-3-yl)piperazin-1-yl)-7-azaspiro[3.5]nonan-7-yl)benzamide], the negative-log IC50 (pIC50) with Toledo cells and in the assay with RS4;11-BCL-2 G101V cells was 9.00 in each case.
For `COc1nc2[nH]cc(F)c2cc1Oc1cc(N2CCC3(CC2)CC(N2CCN(Cc4cc(F)c(OC)c(F)c4)C[C@H]2c2ccccc2C(C)C)C3)ccc1C(=O)NS(=O)(=O)c1cnc(NC[C@H]2CC[C@](C)(O)CC2)c([N+](=O)[O-])c1` [Example 107, 4-(2-((R)-4-(3,5-difluoro-4-methoxybenzyl)-2-(2-isopropylphenyl)piperazin-1-yl)-7-azaspiro[3.5]nonan-7-yl)-2-((3-fluoro-6-methoxy-1H-pyrrolo[2,3-b]pyridin-5-yl)oxy)-N-((6-((((1r,4r)-4-hydroxy-4-methylcyclohexyl)methyl)amino)-5-nitropyridin-3-yl)sulfonyl)benzamide], the pIC50 in the assay with Toledo cells and with RS4;11-BCL-2 G101V cells was 9.00 throughout.
For `CCOc1nc2[nH]cc(F)c2cc1Oc1cc(N2CCC3(CC2)CC(N2CCN(CCOC)C[C@H]2c2ccccc2C(C)C)C3)ccc1C(=O)NS(=O)(=O)c1cnc(NC[C@H]2CC[C@](C)(O)CC2)c([N+](=O)[O-])c1` [Example 130, 2-((6-ethoxy-3-fluoro-1H-pyrrolo[2,3-b]pyridin-5-yl)oxy)-N-((6-((((1r,4r)-4-hydroxy-4-methylcyclohexyl)methyl)amino)-5-nitropyridin-3-yl)sulfonyl)-4-(2-((R)-2-(2-isopropylphenyl)-4-(2-methoxyethyl)piperazin-1-yl)-7-azaspiro[3.5]nonan-7-yl)benzamide], the pIC50 in the assay on Toledo cells and with RS4;11-BCL-2 G101V cells was 9.00 each time.
As to `CC(C)c1ccccc1[C@@H]1CN(C[C@@H]2COCCO2)CCN1C1CC2(CCN(c3ccc(C(=O)NS(=O)(=O)c4cnc(NC[C@H]5CC[C@](C)(O)CC5)c([N+](=O)[O-])c4)c(Oc4cnc5[nH]cc(F)c5c4)c3)CC2)C1` [Example 335, 4-(2-((R)-4-(((R)-1,4-dioxan-2-yl)methyl)-2-(2-isopropylphenyl)piperazin-1-yl)-7-azaspiro[3.5]nonan-7-yl)-2-((3-fluoro-1H-pyrrolo[2,3-b]pyridin-5-yl)oxy)-N-((6-((((1r,4r)-4-hydroxy-4-methylcyclohexyl)methyl)amino)-5-nitropyridin-3-yl)sulfonyl)benzamide], the pIC50 in the assay on Toledo cells and in the assay on RS4;11-BCL-2 G101V cells was 9.00 in each case.
For `COc1nc2[nH]cc(F)c2cc1Oc1cc(N2CCC3(CC2)CC(N2CCN(Cc4ccc5c(c4)CCO5)C[C@H]2c2ccccc2C(C)C)C3)ccc1C(=O)NS(=O)(=O)c1cnc(NC[C@H]2CC[C@](C)(O)CC2)c([N+](=O)[O-])c1` [Example 323, 4-(2-((R)-4-((2,3-dihydrobenzofuran-5-yl)methyl)-2-(2-isopropylphenyl)piperazin-1-yl)-7-azaspiro[3.5]nonan-7-yl)-2-((3-fluoro-6-methoxy-1H-pyrrolo[2,3-b]pyridin-5-yl)oxy)-N-((6-((((1r,4r)-4-hydroxy-4-methylcyclohexyl)methyl)amino)-5-nitropyridin-3-yl)sulfonyl)benzamide], the pIC50 in the assay on Toledo cells and with RS4;11-BCL-2 G101V cells was 9.00 in each case.
Regarding `CC(C)c1ccccc1[C@@H]1CN(Cc2ccc(F)c(F)c2)CCN1C1CC2(CCN(c3ccc(C(=O)NS(=O)(=O)c4cnc(NC[C@H]5CC[C@](C)(O)CC5)c([N+](=O)[O-])c4)c(Oc4cnc5[nH]cc(F)c5c4)c3)CC2)C1` [Example 72, 4-(2-((R)-4-(3,4-difluorobenzyl)-2-(2-isopropylphenyl)piperazin-1-yl)-7-azaspiro[3.5]nonan-7-yl)-2-((3-fluoro-1H-pyrrolo[2,3-b]pyridin-5-yl)oxy)-N-((6-((((1r,4r)-4-hydroxy-4-methylcyclohexyl)methyl)amino)-5-nitropyridin-3-yl)sulfonyl)benzamide], the pIC50 with Toledo cells and in the assay on RS4;11-BCL-2 G101V cells was 9.00 throughout.
Regarding `CCOc1nc2[nH]cc(F)c2cc1Oc1cc(N2CCC3(CC2)CC(N2CCN(Cc4cnn(C5CC5)c4)C[C@H]2c2ccccc2C(C)C)C3)ccc1C(=O)NS(=O)(=O)c1cnc(NC[C@H]2CC[C@](C)(O)CC2)c([N+](=O)[O-])c1` [Example 134, 4-(2-((R)-4-((1-cyclopropyl-1H-pyrazol-4-yl)methyl)-2-(2-isopropylphenyl)piperazin-1-yl)-7-azaspiro[3.5]nonan-7-yl)-2-((6-ethoxy-3-fluoro-1H-pyrrolo[2,3-b]pyridin-5-yl)oxy)-N-((6-((((1r,4r)-4-hydroxy-4-methylcyclohexyl)methyl)amino)-5-nitropyridin-3-yl)sulfonyl)benzamide], the pIC50 in the assay on Toledo cells and with RS4;11-BCL-2 G101V cells was 9.00 in each case.

By pIC50 is commonly meant −log10 of the IC50, conventionally taken in molar units.
